How the values were obtained:
brown patch pathogen = test: Control Test on Brown Patch of Turf Grass; format: in vivo, grass (cultivar: Pentocross); details: Table 6, single active ingredient, soaked into soil, kept for 20 days
Excerpt: Then, the area ratio of brown patch pathogen-attacked portion to the whole surface of the pot was examined according to the same index as in Test Example 1.

[1] = tested on: alternaria leaf spot pathogen of apples; test: Control Test on Alternaria Leaf Spot of Apples; format: in vivo, apples (cultivar: ourin); details: Table 5, single active ingredient, examined after 20 days
Excerpt: After a liquid chemical was dried, 10 trees attacked by alternaria leaf spot pathogen of apples which were previously arranged to be diseased were placed on the windward side and apples of test pots placed on the leeward side by wind of an air conditioner were wind-inoculated.

CC(C)CC(C)c1sccc1NC(=O)c1cn(C)nc1C(F)(F)F (racemic) [P (penthiopyrad), (RS)—N-[2-(1,3-dimethylbutyl)thiophen-3-yl]-1-methyl-3-tri fluoromethyl-1H-pyrazole-4-carboxamide]
Control Value (brown patch pathogen; treated concentration 10 ppm): 53
Control Value ([1]; treated concentration 10 ppm): 50

CCCCCCCCCCCCNC(=N)N [Dodine, dodine]
Control Value ([1]; treated concentration 50 ppm): 44

O=C1C(Cl)=C(Cl)C(=O)N1c1ccc(F)cc1 [Fluoroimide, fluoroimide]
Control Value ([1]; treated concentration 30 ppm): 45

Clc1ccc(CSC(Cn2cncn2)=Nc2ccc(Cl)cc2Cl)cc1 [Imibenconazole, imibenconazole]
Control Value ([1]; treated concentration 10 ppm): 42

CC1(C)COC(C)(CCCc2ccc(Cl)cc2)N1C(=O)n1ccnc1.CC1(C)COC(C)(CCCc2ccc(Cl)cc2)N1C(=O)n1ccnc1.O=C(O)/C=C/C(=O)O (centres unmarked) [Oxpoconazole fumarate, oxpoconazole fumarate]
Control Value ([1]; treated concentration 10 ppm): 46

CC1=C(C(=O)Nc2ccccc2)S(=O)(=O)CCO1 [Oxycarboxin, oxycarboxin]
Control Value (brown patch pathogen; treated concentration 20 ppm): 42

C[Si](C)(C)CC(O)(Cn1cncn1)c1ccc(F)cc1 (centres unmarked) [Simeconazole, simeconazole]
Control Value (brown patch pathogen; treated concentration 10 ppm): 48

Reference: US20080312184A1 (priority 2005, published 2008)
